Read-outs that look alike come from different tables or passages of the source.
Key:
human 5-HT2A receptor = human 5-HT2A receptor (Homo sapiens, UniProt P28223); test: 5-HT2A receptor binding assay ([3H]-ketanserin radioligand)
Method: (§1) Preparation of Solutions of Test and Reference Compounds.
(§2) 1 mM stock solutions of tested compounds were prepared in DMSO. Serial dilutions of compounds were prepared in 96-well microplate in assay buffers using automated pipetting system epMotion 5070 (Eppendorf). Each compound was tested in 10 concentrations from 1.0E-6 to 1.0E-11 M (final concentration).
5-HT2A Receptor Binding Assay.
Radioligand binding was performed using membranes from CHO K1 cells stably transfected with the human 5-HT2A receptor (PerkinElmer). All assays were carried out in duplicates. 50 μl working solution of the tested compounds, 50 μl [3H]-ketanserin (final concentration 1 nM) and 150 μl diluted membranes (7 μg protein per well) prepared in assay buffer (50 mM Tris, pH 7.4, 4 mM CaCl2, 0.1% ascorbic acid) were transferred to polypropylene 96-well microplate using 96-wells pipetting station Rainin Liquidator (MettlerToledo). Mianserin (10 μM) was used to define nonspecific binding. Microplate was covered with a sealing tape, mixed and incubated for 60 minutes at 27° C. The reaction was terminated by rapid filtration through GF/B filter mate presoaked with 0.5% polyethyleneimine for 30 minutes. Ten rapid washes with 200 μl 50 mM Tris buffer (4° C., pH 7.4) were performed using automated harvester system Harvester-96 MACH III FM (Tomtec). The filter mates were dried at 37° C. in forced air fan incubator and then solid scintilator MeltiLex was melted on filter mates at 90° C. for 5 minutes. Radioactivity was counted in MicroBeta2 scintillation counter (PerkinElmer). Data were fitted to a one-site curve-fitting equation with Prism 6 (GraphPad Software) and Ki values were estimated from the Cheng-Prusoff equation.

human GPCR 5-HT2A = human GPCR 5-HT2A (Homo sapiens, UniProt P28223); test: Cellular aequorin-based functional assay, 5-HT2A; type: cell-based; details: for 5-HT2A AGO EC50 [nM]: agonist mode, CHO-K1 aequorin cells
Method: as §1
1 mM stock solutions of the tested compounds were prepared in DMSO. Serial dilutions were prepared in 96-well microplate in assay buffers using automated pipetting system epMotion 5070 (Eppendorf). Two independent experiments in duplicates were performed and 6 to 10 concentrations were tested.
5-HT2A and 5-HT6 Functional Activity Assays.
Cellular aequorin-based functional assays were performed with γ-irradiated recombinant CHO-K1 cells expressing mitochondrially-targeted Aequorin, human GPCR (5-HT2A or 5-HT6) and the promiscuous G protein α16 (PerkinElemer). Assays were performed according to the standard protocol provided by the manufacturer. After thawing, cells were transferred to assay buffer (DMEM/HAM's F12 with 0.1% protease-free BSA) and centrifuged. Cell pellet was resuspended in assay buffer and coelenterazine h was added at final concentrations of 5 μM. Cell suspension was incubated at 21° C., protected from light with constant agitation, for 4 hours and then diluted with assay buffer to a concentration of 250,000 cells/ml. After 1 hour incubation 50 yl cell suspension was dispensed using automatic injectors built in radiometric and luminescence plate counter MicroBeta2 LumiJET (PerkinElmer, USA) into white opaque 96-well microplate preloaded with tested compounds. Immediate light emission generated following calcium mobilization was recorded for 30-60 seconds. In antagonist mode, after 15-30 minutes incubation reference agonist was added to the above assay mix and light emission was recorded again. Final concentration of reference agonist was equal EC80: serotonin 40 nM for 5-HT6 receptor and α-methylserotonin 30 nM for 5-HT2A receptor. The assays were performed in the agonist mode (5-HT6 AGO and 5-HT2A AGO) as well as antagonist mode (5-HT6 ANT and 5-HT2A ANT).
IC50 and EC50 were determined by non-linear regression analysis using GraphPad Prism 6.0 software. The log IC50 was used to obtain the Kb by applying the Cheng-Prusoff approximation.

5-HT6 receptors = 5-HT6 receptors (Homo sapiens, UniProt P50406); test: 5-HT6 receptor binding assay ([3H]-LSD radioligand); details: membranes from CHO-K1 cells with human 5-HT6 receptor, [3H]-LSD 1 nM
Method: as §1, §2
5-HT6 Receptor Binding Assay.
Radioligand binding was performed using membranes from CHO-K1 cells stably transfected with the human 5-HT6 receptor (PerkinElmer). All assays were carried out in duplicates. 50 μl working solution of the tested compounds, 50 μl [3H]-LSD (final concentration 1 nM) and 150 μl diluted membranes (8 μg protein per well) prepared in assay buffer (50 mM Tris, pH 7.4, 10 mM MgCl2, 0.1 mM EDTA) were transferred to polypropylene 96 well microplate using 96-wells pipetting station Rainin Liquidator (MettlerToledo). Methiothepin (10 μM) was used to define nonspecific binding. Microplate was covered with a sealing tape, mixed and incubated for 60 minutes at 37° C. The reaction was terminated by rapid filtration through GF/A filter mate presoaked with 0.5% polyethyleneimine for 30 minutes. Ten rapid washes with 200 μl 50 mM Tris buffer (4° C., pH 7.4) were performed using automated harvester system Harvester-96 MACH III FM (Tomtec). The filter mates were dried at 37° C. in forced air fan incubator and then solid scintilator MeltiLex was melted on filter mates at 90° C. for 5 minutes. Radioactivity was counted in MicroBeta2 scintillation counter (PerkinElmer). Data were fitted to a one-site curve-fitting equation with Prism 6 (GraphPad Software) and Ki values were estimated from the Cheng-Prusoff equation.

Chain of human GPCR 5-HT2A (P28223 whole entry): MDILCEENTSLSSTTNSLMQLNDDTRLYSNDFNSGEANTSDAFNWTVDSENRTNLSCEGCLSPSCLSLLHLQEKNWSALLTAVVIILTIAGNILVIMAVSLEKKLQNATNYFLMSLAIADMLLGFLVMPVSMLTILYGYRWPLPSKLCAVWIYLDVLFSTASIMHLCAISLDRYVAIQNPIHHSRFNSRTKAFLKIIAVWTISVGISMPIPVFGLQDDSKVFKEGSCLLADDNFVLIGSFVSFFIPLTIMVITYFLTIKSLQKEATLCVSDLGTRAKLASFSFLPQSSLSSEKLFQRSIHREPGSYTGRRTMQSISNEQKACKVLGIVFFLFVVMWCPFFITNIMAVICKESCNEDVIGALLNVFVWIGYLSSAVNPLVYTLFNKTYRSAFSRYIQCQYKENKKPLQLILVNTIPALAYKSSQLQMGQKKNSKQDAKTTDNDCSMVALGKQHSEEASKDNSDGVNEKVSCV
Chain of 5-HT6 receptors (P50406 whole entry): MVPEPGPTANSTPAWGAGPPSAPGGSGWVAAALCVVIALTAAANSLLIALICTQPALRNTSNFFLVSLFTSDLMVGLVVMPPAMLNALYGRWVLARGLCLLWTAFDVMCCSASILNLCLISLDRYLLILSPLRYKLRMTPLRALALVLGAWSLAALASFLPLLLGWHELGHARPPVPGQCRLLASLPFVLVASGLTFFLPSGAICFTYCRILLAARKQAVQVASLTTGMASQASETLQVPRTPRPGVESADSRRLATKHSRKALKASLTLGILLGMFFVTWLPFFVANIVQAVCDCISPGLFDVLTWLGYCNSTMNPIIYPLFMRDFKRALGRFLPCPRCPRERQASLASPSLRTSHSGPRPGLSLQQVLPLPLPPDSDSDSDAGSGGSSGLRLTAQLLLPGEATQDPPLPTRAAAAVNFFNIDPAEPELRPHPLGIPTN
Chain of human 5-HT2A receptor (P28223 whole entry): as the sequence (P28223 whole entry) above

SMILES | Ki (human 5-HT2A receptor; membranes from CHO K1 cells with human 5-HT2A receptor, [3H]-ketanserin 1 nM, read-out: 5-HT2A Ki) [nM] | 5-HT2A AGO EC50 [nM] (human GPCR 5-HT2A) | Kb (human GPCR 5-HT2A; antagonist mode, reference agonist α-methylserotonin 30 nM (EC80), read-out: 5-HT2A ANT Kb) [nM] | Ki (5-HT6 receptors) [nM] | Ki (human 5-HT2A receptor) [nM] | Kb (human GPCR 5-HT2A) [nM]
FC(F)(F)c1nc2c(N3CCNCC3)cccc2n1Cc1ccccc1 [Compound 1, 1-benzyl-4-(piperazin-1-yl)-2-(trifluoromethyl)-1H-benzimidazole] | 4.2 | N.C. | 18 | 1.3 |  | 
FC(F)(F)c1cc2c(N3CCNCC3)cccc2n1Cc1ccco1 [Compound 17, 1-(furan-2-ylmethyl)-4-(piperazin-1-yl)-2-(trifluoromethyl)-1H-indole] |  | N.C. |  | 0.62 | 1.6 | 10
